Results on six molecules are retold here after PMC8253220, “Molecular design, synthesis and in vitro biological evaluation of thienopyrimidine–hydroxamic acids as chimeric kinase HDAC inhibitors: a challenging approach to combat cancer” (Journal of Enzyme Inhibition and Medicinal Chemistry, 2021).

Structures are written as SMILES. Several values for one entry are separate records, joined by “and”; a condition that tells them apart may be missing. Equal entries are not always repeated.

Assay [1] concerns OVCAR-4. Kind of assay: NCI one-dose screen. In kind it is cell-based, human. The settings on record: Ovarian OVCAR-4, 10 µM single dose. Summed up: (§1)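 At 10 μM, a single concentration, compounds were evaluated for antiproliferative effect in the NCI 60-line screen, with growth expressed relative to untreated control cells.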
Assay [2] deals with OVCAR-5. In words: NCI one-dose screen. In kind it is cell-based, human. As to conditions: Ovarian OVCAR-5, 10 µM single dose. The method in brief: as §1
Assay [3] relates to HT29. Kind of assay: NCI one-dose screen. It counts as cell-based, human. As to conditions: Colon HT29, 10 µM single dose. The method in brief:
as §1

Assay [4] concerns KM12. Kind of assay: NCI one-dose screen. It counts as cell-based, human. The settings on record: Colon KM12, 10 µM single dose. The method in brief: (§2)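 One concentration (10 μM) applied to each line of the full NCI-60 panel; percent growth compared against untreated cells.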
The test system of assay [5] is SK-MEL-5. In words: NCI one-dose screen. In kind it is cell-based, human. As to conditions: Melanoma SK-MEL-5, 10 µM single dose. The method in brief: as §1
Assay [6] concerns SK-MEL-2. Kind of assay: NCI one-dose screen. In kind it is cell-based, human. As to conditions: Melanoma SK-MEL-2, 10 µM single dose. The method in brief:
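Compounds were tested at a single dose of 10 μM across the full NCI-60 cell line panel. Growth was expressed as percent growth relative to untreated control cells, reported as percent inhibition.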

For assay [7], the system named is UO-31. Kind of assay: NCI one-dose screen. As to conditions: for Growth Percent: Renal UO-31, 10 µM single dose. It counts as cell-based, human. Summed up:
(§3)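 Following the standard NCI-60 protocol, compounds were applied once at 10 μM to all 60 cancer lines. Read-out is percent growth versus untreated controls, expressed as inhibition %.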

Assay [8] relates to MDA-MB-468. Kind of assay: NCI one-dose screen. It counts as cell-based, human. As to conditions: for Growth Percent: Breast MDA-MB-468, 10 µM single dose. Summed up:
as §2

Assay [9] relates to 786-0. In words: NCI one-dose screen. As to conditions: Renal 786-0, 10 µM single dose. In kind it is cell-based, human. Summed up: as §1
Assay [10] relates to HCC-2998. Kind of assay: NCI one-dose screen. It counts as cell-based, human. As to conditions: Colon HCC-2998, 10 µM single dose. The method in brief:
as §1

Assay [11] has as its system SNB-75. In words: NCI one-dose screen. It counts as cell-based, human. As to conditions: CNS SNB-75, 10 µM single dose. Summed up: as §3
Assay [12] relates to RPMI-8226. In words: NCI one-dose screen. It counts as cell-based, human. The settings on record: Leukemia RPMI-8226, 10 µM single dose. Summed up:
as §1

For assay [13], the system named is HOP-92. In words: NCI one-dose screen. In kind it is cell-based, human. The settings on record: NSCLC HOP-92, 10 µM single dose. The method in brief:
as §1

In assay [14] the target is T1, HDAC6 (Homo sapiens, UniProt Q9UBN7).
T1 construct: purchased BPS Bioscience 50006
T1 sequence (Q9UBN7 1-1215): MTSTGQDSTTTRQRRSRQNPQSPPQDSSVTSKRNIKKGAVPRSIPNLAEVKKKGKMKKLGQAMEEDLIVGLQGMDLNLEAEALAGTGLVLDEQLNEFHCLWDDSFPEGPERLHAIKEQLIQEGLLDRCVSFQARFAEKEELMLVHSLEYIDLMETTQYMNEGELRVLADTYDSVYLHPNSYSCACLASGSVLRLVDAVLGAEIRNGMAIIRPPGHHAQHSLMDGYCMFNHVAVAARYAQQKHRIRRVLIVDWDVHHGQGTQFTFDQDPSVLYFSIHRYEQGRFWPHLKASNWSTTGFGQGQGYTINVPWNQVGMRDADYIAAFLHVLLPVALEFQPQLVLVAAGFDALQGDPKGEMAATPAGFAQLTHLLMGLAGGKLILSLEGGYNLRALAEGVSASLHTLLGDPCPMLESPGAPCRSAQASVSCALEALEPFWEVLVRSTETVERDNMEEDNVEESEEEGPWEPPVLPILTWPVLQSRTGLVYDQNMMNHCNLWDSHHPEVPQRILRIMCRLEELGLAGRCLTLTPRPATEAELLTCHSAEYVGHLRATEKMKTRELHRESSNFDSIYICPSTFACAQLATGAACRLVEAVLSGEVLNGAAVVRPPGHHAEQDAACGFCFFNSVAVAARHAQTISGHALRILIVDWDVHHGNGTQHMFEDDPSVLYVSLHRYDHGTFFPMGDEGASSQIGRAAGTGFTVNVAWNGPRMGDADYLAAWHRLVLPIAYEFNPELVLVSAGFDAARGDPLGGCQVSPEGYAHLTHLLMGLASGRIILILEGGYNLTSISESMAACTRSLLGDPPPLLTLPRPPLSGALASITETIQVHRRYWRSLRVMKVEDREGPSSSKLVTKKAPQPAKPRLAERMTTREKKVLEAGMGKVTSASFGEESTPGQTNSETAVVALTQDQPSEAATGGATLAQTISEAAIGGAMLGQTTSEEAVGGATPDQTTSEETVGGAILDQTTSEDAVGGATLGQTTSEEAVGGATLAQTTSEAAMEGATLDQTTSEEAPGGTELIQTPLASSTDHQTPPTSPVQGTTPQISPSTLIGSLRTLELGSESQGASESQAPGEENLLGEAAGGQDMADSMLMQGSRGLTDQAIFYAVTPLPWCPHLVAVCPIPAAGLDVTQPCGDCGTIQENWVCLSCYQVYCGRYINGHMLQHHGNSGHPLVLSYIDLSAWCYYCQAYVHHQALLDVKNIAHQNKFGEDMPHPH
In words: In vitro HDAC6 inhibitory assay (BPS Bioscience, fluorogenic). It counts as biochemical. As to conditions: 10 µM. As to the method: (1 picture or pasted object on this page, not shown here)
HDAC activity assays were performed in duplicates at each concentration. The

In the case of `Cc1c(C(=O)NCCCC(=O)NO)sc2ncnc(Nc3ccc(F)c(Cl)c3)c12` [Compound 20d, 4–(3-chloro-4-fluorophenylamino)-N-(4-(hydroxyamino)-4-oxobutyl)-5-methylthieno[2,3-d]pyrimidine-6-carboxamide], the “Growth Percent” value in [1] was 104.8% and 104.88%; in assay [2] it was 100.1% and 100.15%; in [3], 107.1% and 107.13%; in assay [4] it was 101.5% and 101.54%; in [5], 100.4% and 100.45%; in assay [6] it was 113.2% and 113.22%. In addition, the “Growth Percent” value in [7] was 76.3% and 76.32%; in [8], 83.8% and 83.88%; in assay [9], 104.6% and 104.67%; in assay [10], 104.1% and 104.19%; in assay [11], 90.4% and 90.45%; in assay [12], 108.7% and 108.75%. Besides, in assay [13], the “Growth Percent” value was 118.7% and 118.75%. In addition, the inhibition at 10 µM in [7] (Homo sapiens, renal UO-31, 10 μM) is 23.7%; in assay [8] (Homo sapiens, breast MDA-MB-468, 10 μM) it was 16.2%. In addition, the “Mean % inhibition HDAC6” value in assay [14] is given as 9%.
For `Cc1c(C(=O)NCCCC(=O)NO)sc2ncnc(Nc3ccc(NC(=O)Nc4ccccc4)cc3)c12` [Compound 12a, 1–(4-(6-((4-(hydroxyamino)-4-oxobutyl)carbamoyl)-5-methylthieno[2,3-d]pyrimidin-4-ylamino)phenyl)-3-phenylurea], the “Growth Percent” value in assay [1] was 100.6%; in assay [2], 105.1% and 105.14%; in assay [3] it was 104.7% and 104.74%; in [4] it was 99.6% and 99.61%; in assay [5] it was 97.8% and 97.81%; in assay [6], 113.3% and 113.39%. Further, the “Growth Percent” value was 75.3% and 75.33% in assay [7]; 100.0% and 100.06% in assay [8]; 102.3% and 102.37% in [9]; 102.1% and 102.15% in [10]; 78.1% and 78.17% in assay [11]; 110.5% and 110.53% in [12]. The “Growth Percent” value in [13] was 121.7% and 121.76%. The inhibition at 10 µM in assay [14] worked out at 7%.
`COc1cccc(NC(=O)Nc2ccc(Nc3ncnc4sc(C(=O)NCCC(=O)NO)c(C)c34)cc2)c1` [Compound 11b, 1–(4-(6-((3-(hydroxyamino)-3-oxopropyl)carbamoyl)-5-methylthieno[2,3-d]pyrimidin-4-ylamino)phenyl)-3–(3-methoxyphenyl)urea]: the “Growth Percent” value in [1] is 91.0% and 91.01%; in assay [2] it was 101.9% and 101.91%; in [3], 104.4% and 104.43%; in assay [4], 99.5% and 99.57%; in [5], 95.8% and 95.84%; in assay [6], 116.4% and 116.43%. For the same molecule, the “Growth Percent” value in [7] was 83.4% and 83.44%; in [8], 83.0% and 83.04%; in assay [9], 101.3% and 101.34%; in [10], 103.8% and 103.81%; in assay [11], 83.7% and 83.79%; in assay [12], 110.5%. Moreover, in assay [13], the “Growth Percent” value is 119.1% and 119.18%. In addition, the “Mean % inhibition HDAC6” value in assay [14] was found to be 13%.
With `Cc1c(C(=O)NCCC(=O)NO)sc2ncnc(Nc3ccc(Cl)cc3)c12` [Compound 19c, 4–(4-chlorophenylamino)-N-(3-(hydroxyamino)-3-oxopropyl)-5-methylthieno[2,3-d]pyrimidine-6-carboxamide], the “Growth Percent” value in assay [1] was 112.3% and 112.39%; in assay [2], 110.3% and 110.34%; in [3], 102.2% and 102.22%; in assay [4] it was 102.0% and 102.09%; in assay [5] it was 102.4% and 102.44%; in assay [6], 101.8% and 101.81%. Moreover, the “Growth Percent” value is 79.9% and 79.99% in assay [7]; 119.7% and 119.73% in [8]; 104.9% and 104.99% in [9]; 105.3% and 105.39% in [10]; 91.7% and 91.75% in assay [11]; 105.4% and 105.48% in [12]. For the same molecule, the “Growth Percent” value in assay [13] is 124.7% and 124.71%. The “Mean % inhibition HDAC6” value in assay [14] is recorded as 9%. In addition, in assay [14], the inhibition at 10 µM came to 7%.
For the molecule `Cc1c(C(=O)NO)sc2ncnc(Nc3cccc4[nH]cnc34)c12` [Compound 15a, 4-(1H-benzo[d]imidazol-4-ylamino)-N-hydroxy-5-methylthieno[2,3-d]pyrimidine-6-carboxamide], the “Growth Percent” value is 111.9% and 111.94% in assay [1]; 107.0% and 107.01% in assay [2]; 103.9% and 103.93% in assay [3]; 101.12% in assay [4]; 101.5% and 101.54% in assay [5]; 115.8% and 115.88% in [6]. The “Growth Percent” value in [7] is 80.6% and 80.64%; in [8], 101.3% and 101.31%; in [9], 102.1% and 102.13%; in assay [10], 100.9% and 100.92%; in assay [11] it was 81.0% and 81.08%; in assay [12] it was 112.17%. For the same molecule, the “Growth Percent” value in [13] was 118.2% and 118.26%. The “Mean % inhibition HDAC6” value in assay [14] was found to be 8%. Also, the inhibition at 10 µM in [14] was 7%.
With `COc1cccc(NC(=O)Nc2ccc(Nc3ncnc4sc(C(=O)NCCCC(=O)NO)c(C)c34)cc2)c1` [Compound 12b, 1–(4-(6-((4-(hydroxyamino)-4-oxobutyl)carbamoyl)-5-methylthieno[2,3-d]pyrimidin-4-ylamino)phenyl)-3–(3-methoxyphenyl)urea], the “Growth Percent” value in assay [1] was 99.9% and 99.93%; in assay [2], 107.5% and 107.59%; in [3], 95.3%; in assay [4] it was 101.3% and 101.38%; in assay [5] it was 97.3% and 97.37%; in assay [6] it was 94.6% and 94.66%. Besides, the “Growth Percent” value in assay [7] was 82.0% and 82.06%; in assay [8] it was 97.0% and 97.02%; in assay [9], 105.9%; in [10] it was 108.5% and 108.55%; in [11], 90.6% and 90.62%; in [12], 106.6% and 106.68%. In addition, in assay [13], the “Growth Percent” value was 112.3% and 112.35%. In addition, the “Mean % inhibition HDAC6” value in assay [14] turned out to be 7%. The same molecule yielded an inhibition at 10 µM in assay [14] of 13%.

One may read the inhibition as the percentage by which the read-out fell short of the control.
